In ChEMBL document CHEMBL1201862, “PubChem BioAssay data set” (2004):
Values belong to the compound of their own block, whether it stands above or below them. Active and inactive are the calls of the source. For most assays here, no stated cut-off is given here; in the data, actives have a measured IC50 and inactives only a lower limit.

What was measured:
[1] = target: Hexokinase-1 (Homo sapiens, UniProt P19367); experiment: hexokinase 1 activity inhibitors, potency – biochemical, set 2, resazurin fluorescence coupled readout, selectivity assay for HKDC1 inhibitor project, SAR follow-up (AID 588356); format: functional
Chain of Hexokinase-1 (P19367 whole entry, the tested form may be a part): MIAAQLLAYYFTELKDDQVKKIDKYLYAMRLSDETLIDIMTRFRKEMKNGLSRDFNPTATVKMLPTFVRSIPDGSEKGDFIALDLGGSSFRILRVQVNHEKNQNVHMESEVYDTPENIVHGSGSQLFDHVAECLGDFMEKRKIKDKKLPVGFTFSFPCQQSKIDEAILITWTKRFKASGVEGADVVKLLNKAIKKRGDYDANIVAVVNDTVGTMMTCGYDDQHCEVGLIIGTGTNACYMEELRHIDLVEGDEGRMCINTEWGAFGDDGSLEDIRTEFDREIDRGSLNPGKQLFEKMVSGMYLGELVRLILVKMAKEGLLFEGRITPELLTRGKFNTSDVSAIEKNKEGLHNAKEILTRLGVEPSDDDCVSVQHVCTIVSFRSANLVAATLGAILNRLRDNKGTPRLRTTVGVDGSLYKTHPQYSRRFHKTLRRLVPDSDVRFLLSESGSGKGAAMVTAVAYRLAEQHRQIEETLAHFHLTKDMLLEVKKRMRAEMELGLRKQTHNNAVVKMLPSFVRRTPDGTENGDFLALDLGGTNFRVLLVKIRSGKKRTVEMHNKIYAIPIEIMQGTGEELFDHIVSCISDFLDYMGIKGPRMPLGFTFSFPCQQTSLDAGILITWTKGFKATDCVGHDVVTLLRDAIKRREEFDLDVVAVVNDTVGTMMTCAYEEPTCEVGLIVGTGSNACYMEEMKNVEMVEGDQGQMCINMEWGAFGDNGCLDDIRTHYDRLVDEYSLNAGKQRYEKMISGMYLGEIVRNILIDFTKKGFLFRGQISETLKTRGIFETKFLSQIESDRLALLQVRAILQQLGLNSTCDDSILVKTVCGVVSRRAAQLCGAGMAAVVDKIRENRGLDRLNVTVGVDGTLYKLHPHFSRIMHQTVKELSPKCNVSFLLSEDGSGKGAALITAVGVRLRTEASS

[2] = target: T1, Hexokinase HKDC1 (Homo sapiens, UniProt Q2TB90); experiment: SAR analysis of small molecule inhibitors of hexokinase domain containing I (HKDC1) - Set 3. [Related pubchem assays (depositor defined):AID493160, AID493190]; format: functional
T1 sequence (Q2TB90 whole entry): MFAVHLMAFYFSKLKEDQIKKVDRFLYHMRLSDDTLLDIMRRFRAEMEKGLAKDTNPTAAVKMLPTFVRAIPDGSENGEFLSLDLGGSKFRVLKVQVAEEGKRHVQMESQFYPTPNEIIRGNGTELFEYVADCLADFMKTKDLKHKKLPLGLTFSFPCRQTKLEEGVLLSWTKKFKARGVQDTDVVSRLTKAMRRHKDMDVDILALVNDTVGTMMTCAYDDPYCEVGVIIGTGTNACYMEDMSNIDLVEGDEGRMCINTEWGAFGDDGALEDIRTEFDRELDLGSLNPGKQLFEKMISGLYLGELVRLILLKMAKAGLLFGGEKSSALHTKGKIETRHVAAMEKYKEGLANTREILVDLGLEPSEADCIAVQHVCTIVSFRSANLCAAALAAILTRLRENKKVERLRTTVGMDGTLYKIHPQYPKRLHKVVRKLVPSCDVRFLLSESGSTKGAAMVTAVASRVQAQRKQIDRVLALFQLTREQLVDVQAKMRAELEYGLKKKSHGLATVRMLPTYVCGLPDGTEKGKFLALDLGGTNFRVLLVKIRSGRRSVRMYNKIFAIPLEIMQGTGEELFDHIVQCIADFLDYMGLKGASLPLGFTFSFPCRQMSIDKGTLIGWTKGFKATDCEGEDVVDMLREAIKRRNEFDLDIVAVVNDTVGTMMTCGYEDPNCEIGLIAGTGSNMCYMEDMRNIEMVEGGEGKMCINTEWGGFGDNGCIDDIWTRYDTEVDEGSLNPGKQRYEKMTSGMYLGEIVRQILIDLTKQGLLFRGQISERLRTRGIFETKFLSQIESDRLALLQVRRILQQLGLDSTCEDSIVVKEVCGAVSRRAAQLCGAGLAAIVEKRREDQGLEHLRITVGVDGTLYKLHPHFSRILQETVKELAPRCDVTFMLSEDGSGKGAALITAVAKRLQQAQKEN

[3] = target: T1, Hexokinase HKDC1; experiment: analog inhibition of human HKDC1 activity – biochemical, set 2, SAR follow-up (AID 588355); format: functional
[4] = target: Latent membrane protein 1 (Human herpesvirus 4 (strain B95-8), UniProt P03230); experiment: LMP1 TES1 pathway selectivity over dsRED control – imaging, HEK293T, dual-color eGFP/dsRED, cherry-picks, selectivity assay for LMP1 NF-kB inhibitor project, dose response (AID 588398); format: functional, cell-based
Chain of Latent membrane protein 1 (P03230 whole entry): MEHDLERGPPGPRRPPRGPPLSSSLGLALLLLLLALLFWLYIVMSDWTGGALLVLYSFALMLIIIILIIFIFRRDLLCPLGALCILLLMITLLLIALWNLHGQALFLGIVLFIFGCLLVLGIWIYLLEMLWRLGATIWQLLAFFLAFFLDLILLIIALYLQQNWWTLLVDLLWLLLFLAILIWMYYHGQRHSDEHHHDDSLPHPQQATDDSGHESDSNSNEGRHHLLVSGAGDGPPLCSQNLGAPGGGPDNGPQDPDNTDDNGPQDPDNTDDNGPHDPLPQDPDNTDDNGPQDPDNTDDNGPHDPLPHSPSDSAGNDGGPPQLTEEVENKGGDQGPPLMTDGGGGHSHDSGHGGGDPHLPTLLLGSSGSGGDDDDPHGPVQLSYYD

[5] = target: T2, Sentrin-specific protease 8 (Homo sapiens, UniProt Q96LD8); experiment: inhibition of human SENP8 cleavage activity – biochemical, luminescence, SAR follow-up (AID 504501); format: functional
T2 sequence (Q96LD8 whole entry): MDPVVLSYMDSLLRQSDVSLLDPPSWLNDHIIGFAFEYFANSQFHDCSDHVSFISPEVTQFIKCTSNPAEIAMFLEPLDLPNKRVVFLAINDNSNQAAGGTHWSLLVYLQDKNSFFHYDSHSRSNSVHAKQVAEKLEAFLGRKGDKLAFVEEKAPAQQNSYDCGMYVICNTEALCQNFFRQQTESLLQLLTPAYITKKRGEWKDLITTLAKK

[6] = target: T3, Caspase-3 (Homo sapiens, UniProt P42574); experiment: inhibition of recombinant caspase-3 activity – biochemical, luminescence, set 2, selectivity assay for SENP protease inhibitor project, SAR follow-up (AID 588599); format: functional
T3 sequence (P42574 whole entry): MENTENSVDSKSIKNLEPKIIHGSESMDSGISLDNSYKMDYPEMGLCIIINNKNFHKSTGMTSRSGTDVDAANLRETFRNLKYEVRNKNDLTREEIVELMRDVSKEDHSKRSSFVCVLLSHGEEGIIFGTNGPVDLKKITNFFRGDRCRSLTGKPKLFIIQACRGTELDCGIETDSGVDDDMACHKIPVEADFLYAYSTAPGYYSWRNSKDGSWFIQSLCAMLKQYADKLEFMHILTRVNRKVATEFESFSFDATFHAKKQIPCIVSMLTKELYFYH

[7] = target: T2, Sentrin-specific protease 8; experiment: inhibition of sentrin protease 8 – biochemical, luminescence, set 2, SAR follow-up (AID 588601); format: functional
[8] = target: T3, Caspase-3; experiment: SAR Analysis of small molecule inhibitors of Sentrin-specific proteases (SENPs) using a Caspase-3 Selectivity assay. [Related pubchem assays (depositor defined):AID2540, AID2599, AID434973, AID489001]; format: functional
[9] = target: T4, Sentrin-specific protease 7 (Homo sapiens, UniProt Q9BQF6); experiment: inhibition of human SENP7 cleavage activity – biochemical, luminescence, set 2, SAR follow-up (AID 588600); format: functional
T4 sequence (Q9BQF6 whole entry): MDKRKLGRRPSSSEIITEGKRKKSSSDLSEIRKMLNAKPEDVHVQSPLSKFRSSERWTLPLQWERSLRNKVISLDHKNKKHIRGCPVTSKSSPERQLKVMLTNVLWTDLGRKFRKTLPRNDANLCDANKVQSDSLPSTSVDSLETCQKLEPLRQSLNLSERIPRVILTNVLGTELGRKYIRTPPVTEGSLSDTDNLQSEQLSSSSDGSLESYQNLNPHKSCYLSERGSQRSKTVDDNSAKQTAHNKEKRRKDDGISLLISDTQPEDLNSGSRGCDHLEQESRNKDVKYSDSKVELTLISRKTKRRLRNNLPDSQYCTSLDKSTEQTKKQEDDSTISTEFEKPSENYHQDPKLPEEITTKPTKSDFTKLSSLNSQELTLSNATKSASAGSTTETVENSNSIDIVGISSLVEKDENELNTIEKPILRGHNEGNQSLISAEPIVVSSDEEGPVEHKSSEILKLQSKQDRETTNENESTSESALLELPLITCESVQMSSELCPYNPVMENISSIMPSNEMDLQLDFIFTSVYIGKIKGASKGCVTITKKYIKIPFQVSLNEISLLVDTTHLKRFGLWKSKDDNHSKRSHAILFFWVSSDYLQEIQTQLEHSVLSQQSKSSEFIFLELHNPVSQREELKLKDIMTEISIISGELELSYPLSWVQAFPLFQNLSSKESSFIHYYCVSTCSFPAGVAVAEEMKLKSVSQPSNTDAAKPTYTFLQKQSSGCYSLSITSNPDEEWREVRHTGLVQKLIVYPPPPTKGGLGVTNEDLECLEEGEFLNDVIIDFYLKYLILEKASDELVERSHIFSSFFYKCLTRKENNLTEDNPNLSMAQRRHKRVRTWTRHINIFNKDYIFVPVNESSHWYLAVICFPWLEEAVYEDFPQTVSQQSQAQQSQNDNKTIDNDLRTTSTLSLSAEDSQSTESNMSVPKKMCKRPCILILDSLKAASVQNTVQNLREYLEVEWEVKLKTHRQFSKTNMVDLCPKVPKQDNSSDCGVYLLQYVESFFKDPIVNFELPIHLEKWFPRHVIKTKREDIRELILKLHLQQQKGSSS

[10] = target: T5, Sentrin-specific protease 6 (Homo sapiens, UniProt Q9GZR1); experiment: SAR Analysis of small molecule inhibitors of Sentrin-specific protease 6 (SENP6) using a Luminescent assay. [Related pubchem assays (depositor defined):AID2582, AID2599]; format: functional
T5 sequence (Q9GZR1 whole entry): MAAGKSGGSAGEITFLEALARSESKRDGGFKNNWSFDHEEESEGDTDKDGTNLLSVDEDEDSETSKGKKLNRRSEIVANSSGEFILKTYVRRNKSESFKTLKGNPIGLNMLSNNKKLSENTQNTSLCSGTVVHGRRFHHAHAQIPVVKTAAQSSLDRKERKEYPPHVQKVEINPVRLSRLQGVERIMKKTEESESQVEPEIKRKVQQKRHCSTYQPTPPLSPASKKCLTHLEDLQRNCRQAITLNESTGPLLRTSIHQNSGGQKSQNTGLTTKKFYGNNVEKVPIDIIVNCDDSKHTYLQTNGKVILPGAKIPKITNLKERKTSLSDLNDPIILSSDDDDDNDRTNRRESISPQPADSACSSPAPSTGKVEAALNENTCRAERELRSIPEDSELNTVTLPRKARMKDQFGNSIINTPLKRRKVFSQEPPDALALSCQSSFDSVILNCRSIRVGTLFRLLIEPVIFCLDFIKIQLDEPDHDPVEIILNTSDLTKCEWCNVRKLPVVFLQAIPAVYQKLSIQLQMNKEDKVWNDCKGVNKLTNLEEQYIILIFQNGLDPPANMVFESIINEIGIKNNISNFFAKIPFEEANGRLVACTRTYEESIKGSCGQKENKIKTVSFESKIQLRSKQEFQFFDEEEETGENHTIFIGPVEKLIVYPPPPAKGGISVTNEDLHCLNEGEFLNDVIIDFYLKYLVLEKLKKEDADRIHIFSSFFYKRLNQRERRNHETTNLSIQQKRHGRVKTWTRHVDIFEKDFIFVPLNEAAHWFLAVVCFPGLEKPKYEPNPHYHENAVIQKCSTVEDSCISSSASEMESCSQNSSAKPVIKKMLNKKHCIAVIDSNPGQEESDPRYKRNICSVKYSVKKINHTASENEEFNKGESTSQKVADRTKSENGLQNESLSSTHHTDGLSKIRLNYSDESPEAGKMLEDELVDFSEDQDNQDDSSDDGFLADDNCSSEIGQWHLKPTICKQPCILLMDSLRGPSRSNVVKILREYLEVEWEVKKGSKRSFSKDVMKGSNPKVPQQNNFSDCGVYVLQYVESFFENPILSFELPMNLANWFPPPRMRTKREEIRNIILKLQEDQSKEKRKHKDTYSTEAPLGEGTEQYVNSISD

[11] = target: T5, Sentrin-specific protease 6; experiment: inhibition of human SENP6 catalytic domain – biochemical, luminescence, set 2, SAR follow-up (AID 588598); format: functional
[12] = target: T4, Sentrin-specific protease 7; experiment: inhibition of human SENP7 cleavage activity – biochemical, luminescence, SAR follow-up (AID 504497); format: functional
[13] = target: T6, High affinity choline transporter 1 (Homo sapiens, UniProt Q9GZV3); experiment: human choline transporter potentiators, potency – cell-based, 10-point CRC, membrane potential dye, dose response (AID 602376); format: functional
T6 sequence (Q9GZV3 whole entry): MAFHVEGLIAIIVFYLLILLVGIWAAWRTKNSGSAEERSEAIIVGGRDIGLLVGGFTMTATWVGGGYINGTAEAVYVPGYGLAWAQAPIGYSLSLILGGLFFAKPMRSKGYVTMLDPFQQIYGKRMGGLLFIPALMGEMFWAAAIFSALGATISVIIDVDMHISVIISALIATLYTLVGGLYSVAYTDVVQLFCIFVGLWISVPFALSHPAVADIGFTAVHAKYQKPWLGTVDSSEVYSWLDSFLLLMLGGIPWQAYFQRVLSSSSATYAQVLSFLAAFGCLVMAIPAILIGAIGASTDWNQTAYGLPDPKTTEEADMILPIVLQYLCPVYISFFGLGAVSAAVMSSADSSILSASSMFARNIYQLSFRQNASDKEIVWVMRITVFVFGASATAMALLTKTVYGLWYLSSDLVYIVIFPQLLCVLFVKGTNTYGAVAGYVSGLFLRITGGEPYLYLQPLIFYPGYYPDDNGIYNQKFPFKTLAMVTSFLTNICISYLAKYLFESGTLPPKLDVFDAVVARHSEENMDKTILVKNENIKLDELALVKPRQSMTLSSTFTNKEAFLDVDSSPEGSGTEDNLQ

IC50 [1]: > 80 µM (inactive)
IC50 [2]: > 80 µM (inactive)
IC50 [3]: > 80 µM (inactive)
SMILES: CC(=O)NC1C(=O)N(CCN2CCOCC2)c2ccc(Br)cc21 (stereo not drawn)

AC50 [4]: 30.1 µM (active)
SMILES: O=C1N[C@@H](Cc2c[nH]c3ccccc23)COC(=O)[C@H](Cc2ccc(F)cc2)C/C=C\C[C@H]1CC(=O)N(CCO)Cc1ccccc1

IC50 [6]: 1.98 µM (active)
IC50 [8]: 2.4 µM (active)
IC50 [9]: 2.9 µM (active)
IC50 [10]: 3.2 µM (active)
IC50 [11]: 2.89 µM (active)
IC50 [12]: 2.5 µM (active)
SMILES: O=C(Nc1nc2ccc(Cl)cc2s1)c1nccs1
IC50 [5]: 3.5 µM (active)
IC50 [7]: 2.38 µM (active)

SMILES: CC(NCc1cc(Br)ccc1OCC(N)=O)C12CC3CC(CC(C3)C1)C2 (stereo not drawn)
EC50 [13]: 13.8 µM (active)
